Measured values reported in US5572996A, “In vivo pharmacokinetics of photosensitive drugs and method” (PDT Systems, Inc., priority 1996, dated 1996).
Read-outs that look alike come from different tables or passages of the source.

Experiments:
[1] = set-up: species or system Spraig Dawley Rats; details: rat, in vivo
Protocol: (§1) Twenty-four hours prior to measurement the animals were injected either with a control solution, (carrier vehicle), or various concentrations of the exogenous chromophore, tin ethyl etiopurpurin, (SnET2). SnET2 is a synthetic chlorophyll analogue used in photodynamic light therapy (PDT) that has a relatively weak fluorescence emission, (Quantum yield of 0.01), an emission peak at 670 nm, and a maximum absorption/excitation at 440 nm. At measurement time the animals where anesthetized and then surgically opened to allow measurement of the fluorescence in various tissues. The measurement system used had the following characteristics:
(a) A single fiber was used to deliver excitation light;
(b) Excitation light was derived from a HeCd laser at 442 nm, […] total power delivered to the tissue;
(c) The excitation light was delivered to the target tissue by means of a fiber optic. Fluorescent light emitted by both exogenous and endogenous chromophores in the target tissue was conducted back to the measuring instrument by means of a bundle of smaller optical fibers surrounding the fiber delivering excitation light to the target tissue. Some of these fiber where directed to one PMT (photomultiplier tube) detector filtered for a 570 nm endogenous autofluorescence while the others (12 fibers) were coupled to a PMT filtered at 670 nm for detecting the SnET2 emission;
(d) Autoranging of the gains of the PMTs over five decades;
(e) A display of the 570 (Autofluorescence), 670 (SnET2),signals and the ratio of the two;
(f) An internal reference standard for setting the gain of each PMT prior to each use;
(g) Computer data storage.
The system operates by a foot paddle or a panel button. Activating either one causes the 23 system to take a reading in 1.6 seconds and store it in the display and computer memory. Prior to each use the illuminating probe excitation output is set to 1 mw but this is not necessary due to the ratioing concept.
(§2) A small correction can be made for the endogenous autofluorescence by subtracting the control values from the drug containing tissue to give a NET RATIO. This method permits compensation for background tissue difference while permitting accurate and sensitive measurement of the exogenous chromophore presence in the tissue. Chemical extraction of the SnET2 from the tissue allows correlation of the in-vivo drug concentration to the Ratio signal as shown in Table 3 below. Such a correlation would not be accurate or easily done with out using the Ratio concept.

[2] = set-up: species or system Spraig Dawley Rats; details: rat, in vivo, 24 h
Protocol: as §1, §2

skin cancers [3] = assay: In vivo fluorescence kinetics in a human subject with skin cancers (tumor and normal sites); details: 0.4 mg/kg SnET2, human subject
Protocol: (§3) FIG. 1 presents data from an actual human subject injected with SnET2 for the treatment of a number of skin cancers. A number of normal i.e. control sites, and tumor sites were measured prior to the SnET2 injection, (0.4 mg/kg) and at various times post injection. […] In summary, it is clear from the data provided that the method employing the measurement of the intensity of the exogenous chromophore fluorescence to the autofluorescence of a tissue provide a more accurate means for measuring the pharmacokinetics of an exogenous fluorescing chromophore in vivo. The finding is novel and to the inventor's knowledge has not been taught or acknowledged by others either in a patent or publication. Though the method was discovered and developed during the performance of work associated with photodynamic diagnosis and therapy, the utilization of the present method extends to other types of phototherapy. Any application requiring the in vivo monitoring of rate of change of concentration of a fluorescence chromophore in a tissue could use the present method. For example the in vivo pharmacokinetics of fluorescence labeled monoclonal antibodies for diagnostic or therapeutic application, and certain fluorescent antibiotics such as tetracycline, detection of highly proliferating atherosclerosis, among others. […]

skin cancers [4] = assay: Photodynamic therapeutic response to red light in a human subject; assay type: in vivo; details: 0.4 mg/kg SnET2, human subject
Protocol: as §3

CCOC(=O)C1=Cc2c3nc(cc4nc(cc5[n-]c(cc6[n-]c2c(C)c6CC)c(C)c5CC)C(C)=C4CC)[C@@H](C)[C@]13CC.[Cl-].[Cl-].[Sn] (racemic) [SnET2, tin ethyl etiopurpurin]
Net Ratio, kidney ([1]; 1 mg/kg): 1.73 ± 0.42
Net Ratio, liver ([1]; 1 mg/kg): 17.8 ± 2.15
Net Ratio, kidney ([1]; 2 mg/kg): 2.48 ± 0.14
Net Ratio, liver ([1]; 2 mg/kg): 30.0 ± 5.5
Net Ratio, kidney ([1]; 4 mg/kg): 4.24 ± 0.90
Net Ratio, liver ([1]; 4 mg/kg): 50.1 ± 12.8
Extraction (tissue drug concentration), kidney ([2]; 1 mg/kg): 1.87 ± 0.14 µg/g
Extraction (tissue drug concentration), liver ([2]; 1 mg/kg): 13.2 ± 0.91 µg/g
Extraction (tissue drug concentration), kidney ([2]; 2 mg/kg): 3.56 ± 0.11 µg/g
Extraction (tissue drug concentration), liver ([2]; 2 mg/kg): 27.2 ± 2.5 µg/g
Extraction (tissue drug concentration), kidney ([2]; 4 mg/kg): 5.49 ± 0.54 µg/g
Extraction (tissue drug concentration), liver ([2]; 4 mg/kg): 59.2 ± 8.9 µg/g
drug uptake in tumors versus control/normal sites (Net Ratio, FIG. 3) (skin cancers [3]): the tumors take up the drug significantly more than the control/normal sites
SnET2 fluorescence at 670 nm with site and time (FIG. 2) (skin cancers [3]; unratioed signal): greatly varies with site and time
response to red light exposure (skin cancers [4]): gave a response correlating to the magnitude of the ratio signal
